One block for each compound: values may come before it.
Key:
[1] = Moisture uptake of crystals on exposure to ambient atmosphere (hygroscopicity); type: physicochemical
Protocol: 9-Deoxo-9a-aza-9a-homoerythromycin A (73.5 g-0.1 mole) was dissolved in 250 ml acetone. To this solution, formic acid (19 ml) followed by formaldehyde (37%, 20 ml) were added and refluxed for 24 hrs. The pH of the reaction mixture was adjusted with alkali to 10.5 and filtered to remove particles. To the filtered acetone solution equal volume of water was added to precipitate azithromycin hygroscopic monohydrate as cube shaped crystals. The crystals were filtered and dried under vacuum at 50° C. to give 65 g of azithromycin monohydrate melting at 130-131° C. having a water content of 3.42% (by Karl Fischer titration method). This sample of hygroscopic monohydrate has a characteristic solid state (KBr pellet) IR spectrum (FIG. 1) and a characteristic x-ray diffraction pattern (FIG. 4).
10 gms of hygroscopic azithromycin-monohydrate was suspended in a mixture of iso-propanol (10 ml) and water (10 ml) and stirred at ambient temperature. The transformation of cubical crystals of monohydrate form to the rhomboid form crystals of dihydrate was followed by checking the crystal habit under a microscope at every two hour interval. At 16 hours the rhomboid dihydrate crystals only were seen. The slurry was filtered and dried under vacuum at 50° C. to give 9.8 g of azithromycin dihydrate. […] It has a characteristic solid state IR spectrum (KBr pellet) (FIG. 2) and x-ray diffraction pattern (FIG. 3).

[2] = system: gram negative organisms; details: Dunn and Barradell, Drugs 1996; cited from earlier work

- moisture content reached on exposure to ambient atmosphere ([1]; exposure to ambient atmosphere, 48 hrs, water content after drying 3.42% (Karl Fischer)): 5.4%
SMILES: CC[C@H]1OC(=O)[C@H](C)[C@@H](O[C@H]2C[C@@](C)(OC)[C@@H](O)[C@H](C)O2)[C@H](C)[C@@H](O[C@@H]2O[C@H](C)C[C@H](N(C)C)[C@H]2O)[C@](C)(O)C[C@@H](C)CN(C)[C@H](C)[C@@H](O)[C@]1(C)O [azithromycin monohydrate, Azithromycin monohydrate]

- change in moisture content on exposure to ambient atmosphere ([1]; dihydrate crystals dried under vacuum at 50° C., then exposed to ambient atmosphere): no change in the moisture content
SMILES: CC[C@H]1OC(=O)[C@H](C)[C@@H](O[C@H]2C[C@@](C)(OC)[C@@H](O)[C@H](C)O2)[C@H](C)[C@@H](O[C@@H]2O[C@H](C)C[C@H](N(C)C)[C@H]2O)[C@](C)(O)C[C@@H](C)CN(C)[C@H](C)[C@@H](O)[C@]1(C)O [azithromycin dihydrate, Azithromycin dihydrate]

SMILES: CC[C@H]1OC(=O)[C@H](C)[C@@H](O[C@H]2C[C@@](C)(OC)[C@@H](O)[C@H](C)O2)[C@H](C)[C@@H](O[C@@H]2O[C@H](C)C[C@H](N(C)C)[C@H]2O)[C@@](C)(O)C[C@@H](C)CN(C)[C@H](C)[C@@H](O)[C@]1(C)O [Azithromycin, 9-Deoxo-9a-aza-9a-methyl-9a-homo-Eryhromycin A]
- activity against gram negative organisms compared to Erythromycin A [2]: significant improvement in its activity

— patent publication US20020111318A1, “Process for the preparation of non-hygroscopic azithromycin dihydrate” (priority 2001, published 2002)
